Reference: patent publication US20120053056A1, “COMPOSITIONS AND METHODS FOR IMPROVING THE COMPATIBILITY OF WATER SOLUBLE HERBICIDE SALTS” (DOW AGROSCIENCES LLC, priority 2010, published 2012)

Assays:
[1] = Spray solution compatibility (crystal formation) of 2,4-D and glyphosate salts with 2% AMS and added crystal inhibitor; format: physicochemical; details: 2% AMS, 342 ppm hardness water, 24 h room temperature
Excerpt: Spray solutions were formed from aqueous concentrates of 2,4-D choline (prepared by mixing equimolar amounts of 2,4-D acid and choline hydroxide in water) or 2,4-D DMA and various glyphosate salts (potassium, isopropyl ammonium or dimethyl ammonium) at various concentrations (weight percent acid equivalent basis) of the respective active ingredients with and without added polyethylenimine or polyvinylamine crystal inhibitor (CI).

[2] = On-set pH of crystallization of aqueous 2,4-D potassium solution with added crystal inhibitor (CI), pH lowered with 0.2 N sulfuric acid; format: physicochemical; details: 3% ae 2,4-D K salt in water; CI 0.2 wt %

## NCCNCCNCCNCCN [TEPA, tetraethylenepentamine]
[1]; 2,4-D choline 1.8 wt % ae + WeatherMax 1.8 wt % ae, CI 0.2%
  Result (crystals observed 24 hours after preparation of tank mixture): 1
[1]; 2,4-D choline 1.8 wt % ae + WeatherMax 1.8 wt % ae, CI 0.4%
  Result (crystals observed 24 hours after preparation of tank mixture): 0
[1]; 2,4-D choline 1.8 wt % ae + WeatherMax (glyphosate potassium) 1.8 wt % ae, CI 0.1%
  Result (crystals observed 24 hours after preparation of tank mixture): 3
[2]
  On-set pH of Crystallization: 5.68
